Measurements published in the supplement of paper PMC10307832.

What was measured:
Test in all cases: relative viability (nuclei count vs DMSO), 5 days (fraction); higher = more cells survive
[1] = compound: NCC(=O)Nc1ccc(-n2nc(C(F)(F)F)cc2-c2ccc3c(ccc4ccccc43)c2)cc1 + Cc1cc(Nc2cc(N3CCN(C)CC3)nc(Sc3ccc(NC(=O)C4CC4)cc3)n2)n[nH]1 [Tozasertib] (partner 0.1 µM)
In short: (§1)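 After 5 days of treatment, lung cancer cells in 1536-well plates were fixed and stained in a single step (final 0.05% Triton X-100, 1% formaldehyde, 1 ug/ml Hoechst) and their nuclei counted on 4× images. Treatment had been applied by pin tool the day after seeding as one drug alone or as a fixed anchor-drug dose with five library-drug doses (not always all listed) in √10 steps. Relative viability is the nuclei count of treated wells divided by that of vehicle wells, and values are medians of duplicate plates.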

[2] = compound: C1CSC2=C(C(=O)N1)SC3=C2C=C(C=C3)O [kb NB 142-70] + CC(=O)Nc1cccc(-n2c(=O)n(C3CC3)c(=O)c3c(Nc4ccc(I)cc4F)n(C)c(=O)c(C)c32)c1 [Trametinib] (partner 0.02 µM)
In short: as §1

kb NB 142-70 + Dasatinib = compound: C1CSC2=C(C(=O)N1)SC3=C2C=C(C=C3)O [kb NB 142-70] + Cc1nc(Nc2ncc(C(=O)Nc3c(C)cccc3Cl)s2)cc(N2CCN(CCO)CC2)n1 [Dasatinib] (partner 0.075 µM)
In short: as §1

[3] = compound: NCC(=O)Nc1ccc(-n2nc(C(F)(F)F)cc2-c2ccc3c(ccc4ccccc43)c2)cc1 + CC(C)C[C@H](NC(=O)[C@H](Cc1ccccc1)NC(=O)c1cnccn1)B(O)O [Bortezomib] (partner 0.002 µM)
In short: as §1

| Cell Line | relative viability ([1]; first compound 0.02 µM) | relative viability ([1]; first compound 0.06325 µM) | relative viability ([1]; first compound 0.2 µM) | relative viability ([1]; first compound 0.6325 µM) | relative viability ([1]; first compound 2 µM) | relative viability ([2]; first compound 0.1 µM) | relative viability ([2]; first compound 1 µM) | relative viability ([2]; first compound 3.162 µM) | relative viability (kb NB 142-70 + Dasatinib; first compound 0.1 µM) | relative viability (kb NB 142-70 + Dasatinib; first compound 1 µM) | relative viability (kb NB 142-70 + Dasatinib; first compound 3.162 µM) | relative viability ([3]; first compound 0.02 µM) | relative viability ([3]; first compound 0.06325 µM) | relative viability ([3]; first compound 0.2 µM) | relative viability ([3]; first compound 0.6325 µM) | relative viability ([3]; first compound 2 µM) |
| --- | --- | --- | --- | --- | --- | --- | --- | --- | --- | --- | --- | --- | --- | --- | --- | --- |
| 201T | 0.943 | 0.958 | 1.04 | 0.924 | 0.928 | 0.687 | 0.727 | 0.752 | 0.596 | 0.47 | 0.565 | 1.04 | 1.18 | 1.03 | 1.17 | 1.09 |
| A-427 |  | 0.213 | 0.191 | 0.208 | 0.205 | 0.841 | 0.764 | 0.726 | 0.8 | 0.612 | 0.607 | 0.949 | 0.919 | 0.948 | 0.972 | 0.984 |
| ABC-1 | 0.183 | 0.199 |  | 0.134 | 0.187 |  |  |  | 0.663 | 0.49 | 0.361 | 0.306 | 0.321 |  | 0.226 | 0.267 |
| BEN | 0.422 | 0.499 | 0.461 | 0.464 | 0.572 | 1.02 | 0.99 | 0.892 | 0.307 | 0.303 | 0.209 | 0.817 | 0.852 | 0.763 | 0.701 | 0.576 |
| CAL-12T | 0.304 | 0.368 | 0.344 | 0.334 | 0.277 | 0.341 | 0.39 | 0.241 | 0.408 | 0.375 | 0.414 | 0.899 | 1.09 | 0.967 | 0.931 | 1.11 |
| COR-L23 | 0.208 | 0.213 | 0.195 | 0.21 | 0.136 | 0.558 | 0.588 | 0.32 | 0.529 | 0.526 | 0.311 | 1.05 | 0.944 | 0.962 | 0.978 | 0.737 |
| COR-L 105 | 0.361 | 0.313 | 0.303 | 0.295 | 0.336 | 0.452 | 0.426 | 0.448 | 0.363 | 0.33 | 0.345 | 0.73 | 0.917 | 0.744 | 0.703 | 1.03 |
| Calu-6 |  |  |  |  |  |  |  |  |  |  |  | 0.998 | 1.2 | 1.06 | 0.972 | 1.04 |
| ChaGo-K-1 | 0.21 | 0.223 | 0.241 | 0.251 | 0.231 | 0.883 | 0.875 | 0.876 | 0.509 | 0.559 | 0.543 | 0.979 | 1.02 | 0.81 | 1.04 | 1.12 |
| EBC-1 |  |  |  |  |  |  |  |  |  |  |  | 0.533 | 0.556 | 0.738 | 0.52 | 0.589 |
| EKVX | 0.443 | 0.374 | 0.431 | 0.39 | 0.386 | 0.357 | 0.378 | 0.296 | 0.559 | 0.289 | 0.729 | 1.05 | 1.09 | 1.16 | 1.02 | 0.984 |
| EMC-BAC-2 | 0.29 | 0.314 | 0.325 | 0.308 | 0.302 | 0.876 | 0.917 | 0.941 | 0.363 | 0.305 | 0.235 | 1.02 | 1.19 | 1.1 | 1.07 | 1.1 |
| EPLC-272H | 0.299 | 0.225 | 0.365 | 0.313 | 0.234 | 0.275 | 0.274 | 0.295 | 0.417 | 0.34 | 0.149 | 0.806 | 0.873 | 0.868 | 0.943 | 1.14 |
| H3255 | 0.657 | 0.511 | 0.749 | 0.686 | 0.713 | 0.585 | 0.602 | 0.593 | 0.297 | 0.404 | 0.405 | 0.87 | 1.12 | 0.846 | 0.791 | 0.876 |
| HARA | 0.0731 | 0.108 | 0.12 | 0.0964 | 0.0949 | 0.464 | 0.726 | 1.02 | 0.3 | 0.188 | 0.237 | 1.09 | 1.05 | 1.22 | 1.12 | 1.25 |
| HCC-15 | 0.379 | 0.416 | 0.39 | 0.489 | 0.347 | 0.373 | 0.355 | 0.444 | 0.638 | 0.574 | 0.459 | 1.07 | 1.06 | 1.06 | 1.01 | 0.996 |
| HCC-44 | 1.03 | 1.26 | 0.879 | 0.803 | 0.829 | 1.06 | 1.06 | 1.1 |  |  |  | 0.968 | 0.872 | 0.946 | 0.875 | 0.87 |
| HCC-78 | 0.408 | 0.415 | 0.501 | 0.403 | 0.411 | 0.683 | 0.823 | 0.838 | 0.426 | 0.388 | 0.31 | 0.53 | 0.568 | 0.496 | 0.571 | 0.505 |
